Measured values reported in patent publication US6750348B1, “Chemokine receptor binding heterocyclic compounds” (AnorMED, Inc., priority 1999, dated 2004).
Read-outs that look alike come from different tables or passages of the source.

Tests used:
Type in all cases: cell-based
[1] = tested on: SDF-1α induced Ca flux in SUP-T1 cells; assay: Inhibition of SDF-1α induced Ca flux in SUP-T1 cells (FLIPR); conditions: Homo sapiens, read-out: inhibited SDF-1α induced Ca flux; for inhibition at 20 µg/mL: at 20 μg/mL
Description: (§1) Loading dye: Fluo-3, AM (Molecular Probes F-1241) is dissolved in anhydrous DMSO and stored frozen in aliquots. To increase the solubility of the dye in the loading medium, 10% (w/v) pluronic acid (Molecular Probes F-127) is added to the Fluo-3 stock solution immediately before use.
(§2) HBSS+20 mM Hepes buffer+0.2% BSA, pH 7.4. HBSS 10× [(w/o phenol red and sodium bicarbonate (Gibco 14 065-049)]; Hepes buffer 1M (Gibco 15 630-056), BSA (Sigma A3675). The flux buffer is vacuum-filtered and stored refrigerated for a maximum of 5 days. Before use in the experiment, the buffer is warmed at 37° C. in a waterbath.
(§3) The test compounds were diluted in flux buffer and added to 4 wells of a black microplate (4 parallel measurements per compound).
(§4) The chemokines are diluted in flux buffer to concentrations that are 4-fold higher than the desired concentrations required for stimulation of the cells (i.e. 2.5 nM for SDF-1α and 0.6 nM for RANTES). The chemokines were added to untreated 96-well Sero well compound plates (International Medical, Sterilin code 611F96). In the negative control well's (baseline monitoring), flux buffer is added instead of chemokine. As a positive control to check for dye loading efficiency, 20 μM digitonin (final concentration) was also included. The agonist plate was incubated in the FLIPR (37° C.) for 15-30 min.
SUP-T1 cells were centrifuged at room temperature (RT) and re-suspended in loading medium (RPMI-1640 containing 2% FBS and 4 μM Fluo-3, AM). The cells were incubate at room temperature for 45 min. then washed twice in flux buffer then incubated in flux buffer at room temperature for 10 min. The cells were centrifuged and re-suspended in flux buffer at a density of 3×10^6 cells per mL. […] The microplate is then gently centrifuged at room temperature. Homogeneous spreading of the cells on the bottom of the microplate wells was then confirmed with a microscope and the microplate was incubated in the FLIPR (37° C.) for 10 min. prior to testing.
(§5) The FLIPR settings (camera exposure time and laser power) are adjusted to obtain initial fluorescence values between 8,000 and 10,000 units. After monitoring a 20 second-baseline, the agonist (chemokine) (50 μL) is added by automatic pipettor with black pipette tips. Fluorescence is measured simultaneously in all wells of the microplate every 2 seconds (first 2 min) and thereafter every 6 seconds (additional 2 min). The average ca-flux measured in each set of 4 identical wells (one test compound) was calculated by the FLIPR software.
The compounds of the current invention were tested for inhibition of SDF-1α induced Ca flux in SUP-T1 cells using the method described above.

[2] = tested on: HIV-1 NL4.3 or IIIB; assay: Inhibition of HIV-1 (NL4.3 or IIIB) replication in MT-4 cells (MTT); conditions: Human immunodeficiency virus 1, IIIB
Description: Compounds were tested for their ability to inhibit HIV-1 replication in MT-4 cells or PBMC's (peripheral blood mononucleocytes) using published procedures (for example, see: Labrosse et al. J. Virol. 1998, 6381-6388; Simmons et al. J. Virol. 1998, 8453-8457; Donzella et al. Nature Medicine 1998, 72-77; Schols et al. J. Exp. Med. 1997, 1383-1388; De Clercq et al. Antiviral Res. 1997, 147-156; and Bridger et al. U.S. patent application Ser. No. 09/111,895). In addition to the above references, experimental methods for performing anti-viral assays can also be found in: Bridger et al. J. Med. Chem. 1995, 38, 366-378; Bridger et al. J. Med. Chem. 1996, 39, 109-119; Bridger et al. U.S. Pat. No. 5,698,546; Bridger et al. U.S. Pat. No. 5,583,131; Bridger et al. U.S. Pat. No. 5,817,807; De Clercq et al. Antimicrob. Agents and Chemother. 1994, 38, 668-674.
1. The HIV-1 strains NL4.3 and IIIB are T-tropic strains that exclusively use CXCR4 as the co-receptor for entry into cells. MT-4 Cells express CXCR4 but not CCR5.
Inhibition of HIV-1 NL4.3 (or IIIB) replication assays were performed as previously described (Bridger et al. J. Med. Chem. 1999, 42, 3971-3981; De Clercq et al. Proc. Natl. Acad. Sci, 1992, 89, 5286-5290; De Clercq et al. Antimicrob. Agents Chemother. 1994, 38, 668-674; Bridger et al. J. Med. Chem. 1995, 38, 366-378). Anti-HIV activity and cytotoxicity measurements were carried out in parallel. They were based on the viability of MT-4 cells that had been infected with HIV in the presence of various concentrations of the test compounds. After the MT-4 cells were allowed to proliferate for 5 days, the number of viable cells was quantified by a tetrazolium-based calorimetric 3-(4,5-dimethylthiazol-2-yl)-2,5-diphenyltetrazolium bromide (MTT) procedure in 96-well microtrays. In all of these assays, viral input (viral multiplicity of infection, MOI) was 0.01, or 100 times the 50% cell culture infective dose (CCID50). The EC50 was defined as the concentration required to protect 50% of the virus-infected cells against viral cytopathicity.

[3] = tested on: RANTES induced Ca flux in U87.CCR5 cells; assay: Inhibition of RANTES induced Ca flux in U87.CCR5 cells (FLIPR); conditions: read-out: inhibited RANTES induced Ca flux; for inhibition at 20 µM: U-87-CCR5, at 20 μM
Description: as §1, §2, §3, §4, §5
U87.CCR5 cells were seeded into the black microplates (Costar 3603) on the day before the experiment. The culture medium was removed from the cells and 100 μL of loading medium (DMEM+10% FBS+4 μM Fluo-3, AM) was added to each well and the plate was incubate at 37° C. for 45 min. The loading medium was then removed an the cells were washed twice with flux buffer using the CELL WASH microplate washer (Labsystems) followed by incubation in flux buffer for 10 min. at room temperature (the washing procedure was repeated twice). Finally, the wash buffer was removed from the microplate wells and 150 μL of the test compound, diluted in flux buffer to the desired concentration. The microplate was then incubated in the FLIPR drawer for 10 min. prior to testing. Measurements were performed as described above.
The compounds of the current invention were tested for inhibition of RANTES induced Ca flux in U87.CCR5 cells.

[4] = MT4, read-out: EC50, inhibition of HIV-1 NL4.3 or IIIB replication

SMILES	inhibition at 20 µg/mL [1] [%]	EC50 [2, 4] [mg/L]	also measured
c1ccc(CNCc2ccc(CN(Cc3ncc[nH]3)C3CCCc4cccnc43)cc2)nc1 (stereo not drawn) [Example 15, N-(2-pyridinylmethyl)-N′-(1H-imidazol-2-ylmethyl)-N′-(5,6,7,8-tetrahydro-8-quinolinyl)-1,4-benzenedimethanamine]	> 20	< 20	
c1ccc(CNCc2ccc(CN(Cc3ccc4ccccc4n3)C3CCCc4cccnc43)cc2)nc1 (stereo not drawn) [Example 18, N-(2-pyridinylmethyl)-N′-(2-quinolinylmethyl)-N′-(5,6,7,8-tetrahydro-8-quinolinyl)-1,4-benzenedimethanamine]	> 20	< 20	
c1ccc(CNCc2ccc(CN(Cc3cc[nH]n3)C3CCCc4cccnc43)cc2)nc1 (stereo not drawn) [Example 25, N-(2-pyridinylmethyl)-N′-[3-pyrazolylmethyl]-N′-(5,6,7,8-tetrahydro-8-quinolinyl)-1,4-benzenedimethanamine]			inhibition at 20 µg/mL ([3]; U-87-CCR5, at 20 μg/mL): > 20%
c1ccc(CNCc2ccc(CN(Cc3nccs3)C3CCCc4cccnc43)cc2)nc1 (stereo not drawn) [Example 28, N-(2-pyridinylmethyl)-N′-[2-thiazolylmethyl]-N′-(5,6,7,8-tetrahydro-8-quinolinyl)-1,4-benzenedimethanamine]	> 20	< 20	
COc1ccc2c(c1)CC(NCc1ccc(CNCc3ccccn3)cc1)CC2 (stereo not drawn) [Example 35, N-(2-pyridinylmethyl)-N′-(7-methoxy-1,2,3,4-tetrahydro-2-naphthalenyl)-1,4-benzenedimethanamine]	> 20	< 20	
Oc1cccc2c1CC(NCc1ccc(CNCc3ccccn3)cc1)CC2 (stereo not drawn) [Example 41, N-(2-pyridinylmethyl)-N′-(8-hydroxy-1,2,3,4-tetrahydro-2-naphthalenyl)-1,4-benzenedimethanamine]	> 20	< 20	
c1ccc(CNCc2ccc(CNC3CCc4cccnc4C3)cc2)nc1 (stereo not drawn) [Example 45, N-(2-pyridinylmethyl)-N′-(5,6,7,8-tetrahydro-7-quinolinyl)-1,4-benzenedimethanamine]	> 20	< 20	
CC(C)CNCCN(Cc1ccc(CNCc2ccccn2)cc1)C1CCCc2cccnc21 (stereo not drawn) [Example 48, N-(2-pyridinylmethyl)-N′-[2-(isobutylamino)ethyl]-N′-(5,6,7,8-tetrahydro-8-quinolinyl)-1,4-benzenedimethanamine]	> 20	< 20	
N=C(N)NCCN(Cc1ccc(CNCc2ccccn2)cc1)C1CCCc2cccnc21 (stereo not drawn) [Example 51, N-(2-pyridinylmethyl)-N′-(2-guanidinoethyl)-N′-(5,6,7,8-tetrahydro-8-quinolinyl)-1,4-benzenedimethanamine]	> 20	< 20	
O=C(NCCN(Cc1ccc(CNCc2ccccn2)cc1)C1CCCc2cccnc21)Nc1ccccc1 (stereo not drawn) [Example 55, N-(2-pyridinylmethyl)-N′-[2-(phenylureido)ethyl]-N′-(5,6,7,8-tetrahydro-8-quinolinyl)-1,4-benzenedimethanamine]	> 20	< 20	
c1ccc(CNCc2ccc(CN(Cc3ccccn3)C3CCCc4cccnc43)cc2)nc1 (stereo not drawn) [Example 84, N,N′-bis(2-pyridinylmethyl)-N′-(5,6,7,8-tetrahydro-8-quinolinyl)-1,4-benzenedimethanamine]	> 20	< 20	
c1ccc(CNCc2ccc(CN(Cc3ccccn3)C3CCCCc4cccnc43)cc2)nc1 (stereo not drawn) [Example 85, N,N′-bis(2-pyridinylmethyl)-N′-(6,7,8,9-tetrahydro-5H-cyclohepta[b]pyridin-9-yl)-1,4-benzenedimethanamine]	> 20	< 20	
c1ccc(CNCc2ccc(CN(Cc3ccccn3)C3CCc4cccnc43)cc2)nc1 (stereo not drawn) [Example 86, N,N′-bis(2-pyridinylmethyl)-N′-(6,7-dihydro-5H-cyclopenta[b]pyridin-7-yl)-1,4-benzenedimethanamine]	> 20	< 20	
c1ccc(CNCc2ccc(CN(Cc3ccccn3)CC3CCc4cccnc43)cc2)nc1 (stereo not drawn) [Example 89, N,N′-bis(2-pyridinylmethyl)-N′[(6,7-dihydro-5H-cyclopenta[b]pyridin-7-yl)methyl]-1,4-benzenedimethanamine]	> 20	< 20	
c1ccc(CCN(Cc2cccc(CNCc3ccccn3)c2)Cc2ccccn2)cc1 [Example 109, N-[-(phenyl)ethyl]-N,N′-bis(2-pyridinylmethyl)-1,3-benzenedimethanamine]			inhibition at 20 µM [3]: > 20%
c1ccc(CNCc2cccc(CN(Cc3ccccn3)Cn3ccnc3)c2)nc1 [Example 118, N-[1H-imidazol-1-ylmethyl]-N,N′-bis(2-pyridinylmethyl)-1,3-benzenedimethanamine]			inhibition at 20 µM [3]: > 20%
Cc1nc[nH]c1CN(Cc1ccc(CNCc2ccccn2)cc1)Cc1ccccn1 [Example 166, N-[(4-methyl)-1H-imidazol-5-ylmethyl]-N,N′-bis(2-pyridinylmethyl)-1,4-benzenedimethanamine]			inhibition at 20 µM [1]: > 20%; EC50 ([2]; MT4, read-out: EC50, inhibition of HIV-1 NLA.3 or IIIB replication): < 20 µM
Cn1c(CN(CCc2ccccn2)Cc2ccc(CNCc3ccccn3)cc2)nc2ccccc21 [Example 183, N-[1-methylbenzimidazol-2-ylmethyl]-N-[2-(2-pyridinyl)ethyl]-N′-(2-pyridinylmethyl)-1,4-benzenedimethanamine]			inhibition at 20 µM [1]: > 20%
c1ccc(-c2[nH]c3ccccc3c2CN(CCc2ccccn2)Cc2ccc(CNCc3ccccn3)cc2)cc1 [Example 184, N-[(2-phenyl)benzo[b]pyrrol-3-ylmethyl]-N-[2-(2-pyridinyl)ethyl]-N′-(2-pyridinylmethyl)-1,4-benzenedimethanamine]			inhibition at 20 µM [1]: > 20%
